{"source": "patent US11247970B2", "about": "“Selective inhibition of gluconeogenic activity” (Dana-Farber Cancer Institute, Inc., priority 2017, dated 2022)", "key": {"[1]": {"test_system": "primary hepatocytes", "test": "Cytotoxicity determination in primary hepatocytes (Toxilight, MTT, total protein)", "format": "cell-based, mouse", "experimental": "For cell viability determination using MTT, primary hepatocytes were seeded on a 96-well plate at 20,000 cells/well. The following day cells were treated at different doses, as indicated, for 18 h following similar protocol described above for drug treatment of primary hepatocytes. […] of MTT reagent (5 mg/ml) was then added to each well (n=4/dose) and cells were incubated for 1 h at 37° C. Medium was discarded and dye was extracted by adding […] DMSO to each well. For cytotoxicity determination using ToxiLight Non-destructive Cytotoxicity Bioassay, hepatocytes were seeded on a 6-well plate and treated with either SR-18292 ([…]) or cisplatin ([…]) for 18 h. […] of medium was collected and used to measure cellular toxicity by adding 100 of adenylate kinase detection reagent (AKDR) and incubating 5 min at RT before measuring luminescence."}, "[2]": {"test": "Fasting insulin and liver pAkt in treated mice", "format": "in vivo", "experimental": "Serum samples were gathered from blood collected by cardiac puncture. Insulin was measured with Ultra Sensitive Mouse Insulin ELISA Kit (Crystal Chem, 90080). Kits used to measure alanine transaminase (EALT-100), aspartate transaminase (EASTR-100), lactate dehydrogenase (DLDH-100) were purchased from Bioassay Systems. Kits used to measure lactate (MAK 064), b-hydroxybutyrate (MAK 041), Triglycerides (TR0100) were purchased from Sigma. Kit used to measure cholesterol (C7510) was purchased from Pointe Scientific. Kit used to measure non-esterified fatty acids was purchased from Wako."}, "[3]": {"molecular_target": "T1, PGC-1α (Mus musculus, UniProt O70343)", "T1 sequence (O70343 1-797)": "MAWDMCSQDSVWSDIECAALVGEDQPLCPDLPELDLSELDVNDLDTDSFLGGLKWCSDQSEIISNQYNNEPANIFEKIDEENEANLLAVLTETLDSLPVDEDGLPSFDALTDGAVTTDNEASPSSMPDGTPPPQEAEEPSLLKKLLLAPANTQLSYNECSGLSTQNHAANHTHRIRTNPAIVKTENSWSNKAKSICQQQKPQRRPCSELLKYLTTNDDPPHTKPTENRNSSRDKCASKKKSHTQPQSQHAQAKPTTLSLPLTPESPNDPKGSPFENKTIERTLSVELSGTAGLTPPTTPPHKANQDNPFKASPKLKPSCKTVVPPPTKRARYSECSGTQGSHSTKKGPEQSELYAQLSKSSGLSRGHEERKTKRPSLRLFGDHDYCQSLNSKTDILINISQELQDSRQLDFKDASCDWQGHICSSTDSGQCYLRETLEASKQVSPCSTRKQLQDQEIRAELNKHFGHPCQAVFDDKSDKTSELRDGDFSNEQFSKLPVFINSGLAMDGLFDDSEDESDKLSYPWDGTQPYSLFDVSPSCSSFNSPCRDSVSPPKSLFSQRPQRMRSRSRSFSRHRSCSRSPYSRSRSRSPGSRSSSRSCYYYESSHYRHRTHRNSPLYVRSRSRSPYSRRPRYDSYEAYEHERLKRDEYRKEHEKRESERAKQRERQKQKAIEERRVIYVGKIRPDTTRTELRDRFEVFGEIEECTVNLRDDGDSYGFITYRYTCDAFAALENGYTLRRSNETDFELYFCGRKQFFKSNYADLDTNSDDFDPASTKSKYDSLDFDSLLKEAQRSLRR", "test": "Western blot of PGC-1α acetylation in primary hepatocytes", "format": "cell-based", "parameters": "expressed in transfected cells; host or cells: primary hepatocytes of C57BL/6 mice infected with Ad-PGC-1α and Ad-GCN5", "experimental": "For measurement of acetylation, gene expression and glucose production SR-18292 ([…]) was added to cells overnight and fresh compound was added the following day for additional 3 h before collecting the cells (for total of ˜18 h treatment). Where insulin and glucagon stimulation were performed, the medium was changed to starvation medium (DMEM, 0.2% BSA, 2 mM sodium pyruvate, and 1% penicillin/streptomycin) with fresh compound for the last 3 h and cells were stimulated with either 100 nM insulin or 200 nM glucagon for an extra 1.5 h. For glucose measurements following PGC-1α over expression cells were incubated for the last 3 h in glucose-free medium (phenol-red/glucose free DMEM, 0.2% BSA, 2 mM sodium pyruvate and 20 mM sodium lactate or 10 mM glycerol in case glycerol was used as substrate). For glucose measurements following glucagon stimulation cells were incubated for the last 4 h in the same glucose-free medium that also contained glucagon (200 nM). The glucose level in the medium was measured using a glucose assay kit from Eton Bioscience Inc. by adding […] of assay buffer to […] of medium followed by 15 min incubation at 37° C. Absorbance was measured at 490 nm.\nFor PGC-1α acetylation detection in hepatocytes cells were infected with Ad-PGC-1α and Ad-GCN5. […]"}}, "data": [{"smiles": "Cc1ccc(CN(CC(O)COc2cccc3[nH]ccc23)C(C)(C)C)cc1", "note": "(stereo not drawn) [SR-18292, 1-((1H-indol-4-yl)oxy)-3-(tert-butyl(4-methylbenzyl)amino)propan-2-ol]", "values": [{"measurement": "hepatocyte toxicity by cell viability or total protein levels", "setting": "[1]; 18 h treatment", "result": "did not cause hepatocyte toxicity"}, {"measurement": "total protein levels", "setting": "[1]; n=3", "result": "not affected"}, {"measurement": "basal (fasting) blood insulin levels", "setting": "[2]; HFD 13 weeks", "result": "not significantly changed"}, {"measurement": "phosphorylation of Akt in liver", "setting": "[2]; fasted mice", "result": "not changed"}, {"measurement": "PGC-1α acetylation", "setting": "[3]; primary hepatocytes, Ad-PGC-1α and Ad-GCN5, 18 h", "result": "increased PGC-1α acetylation"}, {"measurement": "PGC-1α acetylation in presence of deacetylase inhibitors", "setting": "[3]; with Ex-527 (SIRT1 inhibitor) and Trichostatin A", "result": "increased acetylation of PGC-1α even in the presence of Ex-527"}]}]}
